Laboratory results from US20240374738A1, “BIFUNCTIONAL COMPOUND CAPABLE OF DEGRADING RECEPTOR TYROSINE KINASE AND APPLICATION THEREOF” (TAIBIDI PHARMACEUTICAL TECHNOLOGY (SHIJIAZHUANG) CO., LTD., priority 2023, published 2024).

Tests used:
Type in all cases: cell-based
DDR1 = DDR1 (Homo sapiens, UniProt Q08345); experiment: Degradation of DDR1 in tumor cell MKN45 (Western blot); design: The degradation activity of the compounds against DDR1 in the MKN45 cell line; endogenous in cells; host or cells: MKN45; settings: MKN-45, maximum degradation percentage, MKN45 cells, 24 hours
Protocol: Western blot experiment: Take gastric cancer cells (MKN45) and inoculate them into a 6-well plate at a concentration of […], adding 2 ml to each well and incubating for 24 hours.
The next day, observe the cells under a microscope to confirm their status. Prepare compounds, weigh a certain amount of the series compounds or reference drug cabozantinib from this patent, first prepare a high concentration mother liquor with pure DMSO, and use gradient dilution method to prepare compound concentrations of 2 mM, 200 μM, 100 μM, 20 μM, 2 μM, 200 nM, and 0 nM. The final concentration of DMSO is 0.5%. Shake to thoroughly mix. Add 10 μl of solution to each well. After incubation for 24 hours, remove the cells and use a pipette to aspirate the suspended cells into a 1.5 ml centrifuge tube. Centrifuge at 5000 rpm for 10 minutes to precipitate the cells. Carefully remove the cell precipitate from the culture medium, add 1 ml of PBS and shake slightly. After repeated cleaning for 3 times, dry the residue. Add 150 μl of RIPA lysate pre mixed with 1% PMSF, blow to allow the lysate to fully contact the cells, and incubate on ice for 10 minutes. Centrifuge at 12000 rpm for 10 minutes, extract the supernatant, use the BCA protein quantification kit to determine and homogenize the sample loading.
Mix BCA-A in a 50:1 ratio Prepare working solution with B solution, dilute the sample by 5 times, then pipette 20 μl onto a 96 well ELISA plate. Add 200 μl of pre mixed BCA working solution and incubate at 37° C. for 20 minutes. Measure the A562 nm absorbance value using an ELISA reader and substitute it into the protein standard curve formula to obtain the sample concentration. After calculating the required volume for loading […] of sample, divide the sample into 1.5 ml centrifuge tubes. Add 10 μl of sample buffer to each tube and mix well. Heat in a 95° C. metal bath for 5 minutes to denature the protein.
Take 4-20% gradient pre adhesive and fix it on the adhesive rack. Add electrophoresis solution to the slot and remove the comb, Marker and protein samples were loaded, and after 30 minutes of electrophoresis at 80V, the voltage was adjusted to 120V for electrophoresis, The marker band stops electrophoresis at the forefront of the gel. Take out the adhesive block and cut it to the appropriate size, The PVDF membrane was cut and activated in methanol, and after activation, the PVDF membrane was equilibrated in a membrane transfer equilibrium solution for 1 minute. Using sponge pads The sequence of PVDF film, adhesive, and sponge pad is placed in the splint and placed in the eBlot equipment for rapid wet rotation. Remove the membrane and seal it in 5% skim milk powder dissolved in 1×TBST for 1 hour. Cut the membrane according to the molecular weight of the target protein and internal reference protein, and place it in primary antibody diluted with 1×TBST. Shake overnight at 4° C.
The next day, transfer the band to 1×TBST for 3 washes, then add a specific dilution of the secondary antibody and shake it for 1.5 hours. Transfer the band again to 1×TBST for 3 washes, prepare ECL color solution, place the membrane in the imaging system, cover the surface with ECL color solution, and take photos of the membrane using the imaging system.
Using the SHST analysis system to analyze the results, measure the grayscale values of each band of the target protein and internal reference protein. Normalize the grayscale values of the target protein/corresponding lane GAPDH grayscale values, and perform quantitative analysis according to the protein amount=experimental group grayscale value/blank control group grayscale value.
The activity of the compound of the present invention in degrading DDR in tumor cell line MKN45 was measured. […]

MKN45 = experiment: Growth inhibition of gastric cancer cells MKN45 (CCK-8); settings: Homo sapiens, MKN-45, half inhibitory concentration, 72 hours
Protocol: (§1) Inoculate gastric cancer cells (SNU5 or MKN45) into a 96 well plate at a concentration of […], with 100 μl added to each well. Incubate for 30 minutes. Observe the cell status under a microscope. Prepare compounds, weigh a certain amount of the series compounds or reference drug cabozantinib of this patent, first prepare a high concentration mother liquor with pure DMSO, and use gradient dilution method to prepare a concentration of 200 μM, 60 μM, 20 μM, 6 μM, 2 μM, 600 nM, 200 nM, 0 nM drug solution, shake to make it fully mixed. The control group was prepared with cabozantinib using the same solvent and method.
(§2) After preparation, add 1 μl of drug solution to each well of the 96 well plate, and then add 100 μl of culture medium. Repeat each dose three times. Gently shake to allow the cells and medication to come into full contact and incubate in the incubator for 72 hours. 72 hours later, remove and color with CCK-8 reagent kit. Add 20 μl of CCK-8 reagent to each well, gently shake well, and incubate in the incubator for 1 hour. After 1 hour, remove and measure the absorbance of each well using an enzyme-linked immunosorbent assay (ELISA) reader at a wavelength of 450 nm.
(§3) According to the formula: Cell growth inhibition rate=[1−(absorbance of experimental group absorbance of culture medium control group)/(absorbance of blank control group−absorbance of culture medium control group)]×100%. It can be concluded that the compound has the ability to inhibit the growth of gastric cancer cells at the current dose and time.
(§4) Draw a graph based on the gradient of concentration and use GraphPad Prism 9 software (GraphPad Software, La Jolla, CA) to calculate the maximum inhibitory concentration (IC50) at 50%.
(§5) Referring to steps 1 and 2 of this embodiment, the inhibitory effect of the compound of the present invention on the growth of cancer cells and the degradation effect of target proteins were measured, and the following results were obtained (see Table 2 below).
(§6) The growth inhibitory effects of the compound of the present invention on tumor cell lines MKN45 and SNU5 were measured. The activity is expressed as half inhibitory concentration (C50). The results are shown in Table 2 below; When the half inhibitory concentration is less than or equal to 100 nM, the compound activity is labeled as “++++”; When the half inhibitory concentration is greater than 100 nM and less than 500 nM, the compound activity is labeled as […] and less than 1000 nM, the compound activity is labeled as “++”; When the half inhibitory concentration is greater than 1000 nM and less than 3000 nM, the compound activity is marked as “+”; When the half inhibitory concentration is greater than 3000 nM, the compound activity is marked as […]

SNU5 = experiment: Growth inhibition of gastric cancer cells SNU5 (CCK-8); settings: Homo sapiens, SNU-5, half inhibitory concentration, 72 hours
Protocol: as §1, §2, §3, §4, §5, §6

DDR1, sequence (Q08345 19-913): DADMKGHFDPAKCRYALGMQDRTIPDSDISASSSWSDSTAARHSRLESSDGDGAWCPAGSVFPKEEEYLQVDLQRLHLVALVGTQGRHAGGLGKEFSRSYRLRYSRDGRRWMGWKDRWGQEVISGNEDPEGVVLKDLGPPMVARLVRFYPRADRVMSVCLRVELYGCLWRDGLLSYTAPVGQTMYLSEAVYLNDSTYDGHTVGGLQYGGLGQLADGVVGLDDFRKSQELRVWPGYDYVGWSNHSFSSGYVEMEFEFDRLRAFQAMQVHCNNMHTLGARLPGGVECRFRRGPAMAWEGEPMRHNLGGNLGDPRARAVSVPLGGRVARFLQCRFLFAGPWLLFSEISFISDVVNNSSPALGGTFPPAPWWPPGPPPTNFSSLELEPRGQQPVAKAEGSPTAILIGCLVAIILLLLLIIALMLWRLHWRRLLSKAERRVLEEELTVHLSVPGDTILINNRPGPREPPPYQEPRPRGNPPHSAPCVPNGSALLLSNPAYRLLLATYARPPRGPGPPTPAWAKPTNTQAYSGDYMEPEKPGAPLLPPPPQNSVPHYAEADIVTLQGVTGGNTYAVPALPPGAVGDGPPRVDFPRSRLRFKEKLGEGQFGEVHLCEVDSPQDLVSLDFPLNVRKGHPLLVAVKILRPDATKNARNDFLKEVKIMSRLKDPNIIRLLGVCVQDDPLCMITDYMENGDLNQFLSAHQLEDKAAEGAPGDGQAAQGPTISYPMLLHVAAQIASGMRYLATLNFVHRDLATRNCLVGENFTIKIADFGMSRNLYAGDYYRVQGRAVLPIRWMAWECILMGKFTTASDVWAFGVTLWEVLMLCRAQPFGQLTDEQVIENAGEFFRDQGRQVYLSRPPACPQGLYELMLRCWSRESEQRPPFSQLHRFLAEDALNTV

Row | Structure (SMILES) | Dmax (DDR1) | IC50 (MKN45) | IC50 (SNU5)
1 | COc1cc2c(Oc3ccc(NC(=O)C4(C(=O)Nc5ccc(F)cc5)CC4)cc3)ccnc2cc1N1CCC(CN2CCN(CCNc3nccc4c3CN(C3CCC(=O)NC3=O)C4=O)CC2)CC1 (stereo not drawn) [TPD12001] | 65 to 75% | ≤ 100 nM | ≤ 100 nM
2 | COc1cc2c(Oc3ccc(NC(=O)C4(C(=O)Nc5ccc(F)cc5)CC4)cc3)ccnc2cc1N1CCC(CN2C[C@H]3C[C@@H]2CN3CCNc2cc3c(cn2)C(=O)N(C2CCC(=O)NC2=O)C3)CC1 (stereo partly drawn) [TPD12097] | 65 to 75% | ≤ 100 nM | ≤ 100 nM
3 | O=C1CCC(N2Cc3cc(NCCN4C5CC4CN(CC4CCN(c6cc7nccc(Oc8ccc(NC(=O)C9(C(=O)Nc%10ccc(F)cc%10)CC9)cc8)c7cc6F)CC4)C5)ncc3C2=O)C(=O)N1 (stereo not drawn) [TPD12086] | 75 to 85% | 100 to 500 nM | ≤ 100 nM
4 | COc1cc2c(Oc3ccc(NC(=O)C4(C(=O)Nc5ccc(F)cc5)CC4)cc3)ccnc2cc1N1CCC(CN2CC3CC(C2)N3CCNc2cc3c(cn2)C(=O)N(C2CCC(=O)NC2=O)C3)CC1 (stereo not drawn) [TPD12082] | 65 to 75% | 100 to 500 nM | ≤ 100 nM
5 | Cc1nc(CCN2CCC(CN3CCN(c4ccc5c(c4)C(=O)N(C4CCC(=O)NC4=O)C5=O)CC3)CC2)cc(Nc2ncc(C(=O)Nc3c(C)cccc3Cl)s2)n1 (stereo not drawn) [TPD10051] | > 85% | ≤ 100 nM | 500 to 1000 nM
6 | COc1cc2c(Oc3ccc(NC(=O)C4(C(=O)Nc5ccc(F)cc5)CC4)cc3)ccnc2cc1N1CCC(NC(=O)C2(C(=O)N[C@H](C(=O)N3C[C@H](O)C[C@H]3C(=O)NCc3ccc(-c4scnc4C)cc3)C(C)(C)C)CC2)CC1 [TPD5424] | 65 to 75% | 1000 to 3000 nM | 500 to 1000 nM

Further lines, results first:

Row | Dmax (DDR1) | IC50 (MKN45) | IC50 (SNU5) | Structure (SMILES)
7 | 75 to 85% | 100 to 500 nM | 100 to 500 nM | COc1cc2c(Oc3ccc(NC(=O)C4(C(=O)Nc5ccc(F)cc5)CC4)cc3)ccnc2cc1N1CCC(CN2CCC(C(=O)N3C[C@H](O)C[C@H]3C(=O)NCc3ccc(-c4scnc4C)cc3)CC2)CC1 [TPD5421]
8 | 65 to 75% | 1000 to 3000 nM | 500 to 1000 nM | N#Cc1cccc(-c2ccc(=O)n(Cc3cccc(-c4ncc(OCC5CCN(CCC(=O)Nc6cccc7c6CN(C6CCC(=O)NC6=O)C7=O)CC5)cn4)c3)n2)c1 (stereo not drawn) [TPD10013]
9 | 65 to 75% | 100 to 500 nM | ≤ 100 nM | COc1cc2c(Oc3ccc(NC(=O)C4(C(=O)Nc5ccc(F)cc5)CC4)cc3)ccnc2cc1NC(=O)c1cnc(N2CCC(CN3CCN(c4ccc5c(c4)C(=O)N(C4CCC(=O)NC4=O)C5=O)CC3)CC2)nn1 (stereo not drawn) [TPD5714]
10 | > 85% | 1000 to 3000 nM | 100 to 500 nM | COc1cc2c(Oc3ccc(NC(=O)C4(C(=O)Nc5ccc(F)cc5)CC4)cc3)ccnc2cc1N1CCC(N2CCN(C(=O)CCCCC(=O)N[C@H](C(=O)N3C[C@H](O)C[C@H]3C(=O)NCc3ccc(-c4scnc4C)cc3)C(C)(C)C)CC2)CC1 [TPD5494]
11 | 75 to 85% | 100 to 500 nM | 500 to 1000 nM | COc1cc2c(Oc3ccc(NC(=O)C4(C(=O)Nc5ccc(F)cc5)CC4)cc3)ccnc2cc1NC(=O)CN1CCN(CC2CCN(c3ccc4c(c3)C(=O)N(C3CCC(=O)NC3=O)C4=O)CC2)CC1 (stereo not drawn) [TPD5746]
12 | 75 to 85% | 100 to 500 nM | 100 to 500 nM | COc1cc2c(Oc3ccc(NC(=O)C4(C(=O)Nc5ccc(F)cc5)CC4)cc3)ccnc2cc1N1CCC(N2CCN(C(=O)CCOCC(=O)N[C@H](C(=O)N3C[C@H](O)C[C@H]3C(=O)NCc3ccc(-c4scnc4C)cc3)C(C)(C)C)CC2)CC1 [TPD5495]
13 | > 85% | ≤ 100 nM | ≤ 100 nM | COc1cc2c(Oc3ccc(NC(=O)C4(C(=O)Nc5ccc(F)cc5)CC4)cc3)ccnc2cc1N1CCC(CN2CCN(CCNc3cccc4c3C(=O)N(C3CCC(=O)NC3=O)C4=O)CC2)CC1 (stereo not drawn) [TPD5972]
14 | 65 to 75% | 1000 to 3000 nM | 1000 to 3000 nM | COc1cc2c(Oc3ccc(NC(=O)C4(C(=O)Nc5ccc(F)cc5)CC4)cc3)ccnc2cc1N1CCC(CN2CC(C(=O)N3C[C@H](O)C[C@H]3C(=O)NCc3ccc(-c4scnc4C)cc3)C2)CC1 [TPD5430]
